Source: the NIST ThermoML archive (doi:10.1021/je900596d)
± gives the expanded uncertainty stated by the source.

Settings: Liquid; for mass density: Vibrating tube method; for vapor or sublimation pressure: Closed cell (Static) method

FC(F)=C(F)C(F)(F)F [hexafluoropropene]
Settings | mass density [kg/m3]
323.37 K, 3190.6 kPa | 1208.65 ± 1.2
323.37 K, 3233.2 kPa | 1209.26 ± 1.2
323.37 K, 3274 kPa | 1209.98 ± 1.2
323.37 K, 3319.3 kPa | 1210.67 ± 1.2
323.37 K, 3363.9 kPa | 1211.37 ± 1.2
323.37 K, 3409 kPa | 1212.2 ± 1.2
323.37 K, 3453.1 kPa | 1212.75 ± 1.2
323.37 K, 3494.3 kPa | 1213.56 ± 1.2
323.37 K, 3536.1 kPa | 1214.13 ± 1.2
323.37 K, 3576.1 kPa | 1214.83 ± 1.3
323.37 K, 3614.3 kPa | 1215.37 ± 1.2
323.37 K, 3655.5 kPa | 1215.99 ± 1.3
323.37 K, 3696.8 kPa | 1216.59 ± 1.2
323.37 K, 3734.8 kPa | 1217.22 ± 1.2
323.37 K, 3774.4 kPa | 1217.9 ± 1.2
323.37 K, 3814.2 kPa | 1218.51 ± 1.3
323.37 K, 3853.1 kPa | 1219.11 ± 1.2
323.37 K, 3890.4 kPa | 1219.71 ± 1.2
323.37 K, 3929.4 kPa | 1220.24 ± 1.3
323.37 K, 3968.3 kPa | 1220.84 ± 1.3
323.37 K, 4008.7 kPa | 1221.41 ± 1.3
323.37 K, 4049.2 kPa | 1222.01 ± 1.2
323.37 K, 4086.5 kPa | 1222.57 ± 1.3
323.37 K, 4125.9 kPa | 1223.19 ± 1.3
323.37 K, 4203.9 kPa | 1224.27 ± 1.2
323.37 K, 4242.8 kPa | 1224.81 ± 1.3
323.37 K, 4283.2 kPa | 1225.52 ± 1.3
323.37 K, 4323.7 kPa | 1226 ± 1.3
323.37 K, 4365 kPa | 1226.67 ± 1.3
323.37 K, 4405.1 kPa | 1227.17 ± 1.3
323.37 K, 4444.7 kPa | 1227.66 ± 1.2
323.37 K, 4485 kPa | 1228.31 ± 1.3
323.37 K, 4510.8 kPa | 1228.65 ± 1.3
323.37 K, 4561.5 kPa | 1229.42 ± 1.3
323.37 K, 4618.8 kPa | 1230.22 ± 1.3
323.37 K, 4671.5 kPa | 1230.85 ± 1.3
323.37 K, 4727.5 kPa | 1231.69 ± 1.3
323.37 K, 4782 kPa | 1232.28 ± 1.3
323.37 K, 4834 kPa | 1233.09 ± 1.3
323.37 K, 4887.1 kPa | 1233.93 ± 1.3
323.37 K, 4938.4 kPa | 1234.66 ± 1.3
323.37 K, 4991 kPa | 1235.13 ± 1.3
323.37 K, 5040.4 kPa | 1235.89 ± 1.3
323.37 K, 5097.9 kPa | 1236.56 ± 1.3
323.37 K, 5155.7 kPa | 1237.37 ± 1.3
323.37 K, 5211.3 kPa | 1238.02 ± 1.3
323.37 K, 5267.7 kPa | 1238.8 ± 1.3
323.37 K, 5326.8 kPa | 1239.64 ± 1.3
323.37 K, 5386 kPa | 1240.28 ± 1.3
323.37 K, 5440.9 kPa | 1241.12 ± 1.3
323.37 K, 5498.8 kPa | 1241.79 ± 1.3
323.37 K, 5518.2 kPa | 1242.1 ± 1.3
323.37 K, 5575.5 kPa | 1242.7 ± 1.3
323.37 K, 5631.7 kPa | 1243.39 ± 1.3
323.37 K, 5693 kPa | 1244.16 ± 1.3
323.37 K, 5751.8 kPa | 1244.98 ± 1.3
323.37 K, 5808.1 kPa | 1245.67 ± 1.3
323.37 K, 5864.8 kPa | 1246.37 ± 1.3
323.37 K, 5921.9 kPa | 1247.09 ± 1.3
323.37 K, 5977.9 kPa | 1247.78 ± 1.3
323.37 K, 6035 kPa | 1248.49 ± 1.3
323.37 K, 6091.4 kPa | 1249 ± 1.3
323.37 K, 6150.7 kPa | 1249.77 ± 1.3
323.37 K, 6208.1 kPa | 1250.43 ± 1.3
323.37 K, 6265.4 kPa | 1251.23 ± 1.3
323.37 K, 6323.2 kPa | 1251.69 ± 1.3
323.37 K, 6380.6 kPa | 1252.41 ± 1.3
323.37 K, 6438.3 kPa | 1253.13 ± 1.3
323.37 K, 6494.6 kPa | 1253.91 ± 1.3
323.37 K, 6551.8 kPa | 1254.4 ± 1.3
323.37 K, 6606.9 kPa | 1255.07 ± 1.3
323.37 K, 6663.3 kPa | 1255.73 ± 1.3
323.37 K, 6721.4 kPa | 1256.27 ± 1.3
323.37 K, 6837.9 kPa | 1257.77 ± 1.3
323.37 K, 6894.2 kPa | 1258.24 ± 1.3
323.37 K, 6952.1 kPa | 1259 ± 1.3
323.37 K, 7008.2 kPa | 1259.55 ± 1.3
323.37 K, 7067.2 kPa | 1260.31 ± 1.3
323.37 K, 7126.4 kPa | 1260.79 ± 1.3
323.37 K, 7183.6 kPa | 1261.47 ± 1.3
323.37 K, 7241.8 kPa | 1262.13 ± 1.3
323.37 K, 7299.5 kPa | 1262.75 ± 1.3
323.37 K, 7358.7 kPa | 1263.39 ± 1.3
323.37 K, 7415.2 kPa | 1263.98 ± 1.3
323.37 K, 7474.7 kPa | 1264.58 ± 1.3
323.37 K, 7531.4 kPa | 1265.19 ± 1.3
323.37 K, 7588.8 kPa | 1265.89 ± 1.3
323.37 K, 7648.3 kPa | 1266.42 ± 1.3
323.37 K, 7707.1 kPa | 1267.12 ± 1.3
323.37 K, 7764.7 kPa | 1267.63 ± 1.3
323.37 K, 7823.9 kPa | 1268.27 ± 1.3
323.37 K, 7882.7 kPa | 1268.85 ± 1.3
323.37 K, 7940.4 kPa | 1269.67 ± 1.3
323.37 K, 7995.5 kPa | 1270.08 ± 1.3
323.37 K, 8048 kPa | 1270.66 ± 1.3
323.37 K, 8125.8 kPa | 1271.24 ± 1.3
323.37 K, 8203.2 kPa | 1272.24 ± 1.3
323.37 K, 8277.9 kPa | 1272.98 ± 1.3
323.37 K, 8354.3 kPa | 1273.75 ± 1.3
323.37 K, 8407.9 kPa | 1274.11 ± 1.3
323.37 K, 8486.2 kPa | 1275.02 ± 1.3
323.37 K, 8565.3 kPa | 1275.71 ± 1.3
323.37 K, 8644.1 kPa | 1276.5 ± 1.3
323.37 K, 8721.2 kPa | 1277.38 ± 1.3
323.37 K, 8795.7 kPa | 1278.02 ± 1.3
323.37 K, 8871.5 kPa | 1278.77 ± 1.3
323.37 K, 8923.6 kPa | 1279.19 ± 1.3
323.37 K, 9000 kPa | 1279.98 ± 1.3
323.37 K, 9075.8 kPa | 1280.67 ± 1.3
323.37 K, 9128 kPa | 1281.22 ± 1.3
323.37 K, 9181 kPa | 1281.6 ± 1.3
323.37 K, 9257 kPa | 1282.4 ± 1.3
323.37 K, 9330.9 kPa | 1283.02 ± 1.3
323.37 K, 9404.8 kPa | 1283.76 ± 1.3
323.37 K, 9479.6 kPa | 1284.46 ± 1.3
323.37 K, 9533 kPa | 1284.99 ± 1.3
323.37 K, 9609.3 kPa | 1285.65 ± 1.3
323.37 K, 9682.9 kPa | 1286.27 ± 1.3
323.37 K, 9757.3 kPa | 1287.03 ± 1.3
323.37 K, 9833.2 kPa | 1287.72 ± 1.3
323.37 K, 9909.3 kPa | 1288.32 ± 1.3
323.37 K, 9986.3 kPa | 1289.02 ± 1.3
343.18 K, 2257.1 kPa | 1022.11 ± 1.1
343.18 K, 2260.4 kPa | 1022.55 ± 1.1
343.18 K, 2263.3 kPa | 1022.75 ± 1.1
343.18 K, 2269.6 kPa | 1023.31 ± 1.1
343.18 K, 2279.2 kPa | 1024.07 ± 1.1
343.18 K, 2287.2 kPa | 1024.5 ± 1.1
343.18 K, 2297 kPa | 1025.46 ± 1.1
343.18 K, 2306 kPa | 1025.93 ± 1.1
343.18 K, 2314 kPa | 1026.5 ± 1.1

Settings | vapor or sublimation pressure [kPa]
328.21 K | 1595.1 ± 2.9
333.21 K | 1791.4 ± 3.2
338.18 K | 2007.9 ± 3.6
